Reference: ChEMBL document CHEMBL1134659, “Amino acid/spermine conjugates: polyamine amides as potent spermidine uptake inhibitors” (J Med Chem, 2001)

How the values were obtained:
Type in all cases: functional, cell-based
MDA-MB-231 [1] = assay: Inhibition of [3H]spermidine transport into MDA-MB-231 (human breast cancer) cells.
MDA-MB-231 [2] = assay: In vitro inhibition of [3H]spermidine uptake in MDA-MB-231 (Human breast cancer) cells.
MDA-MB-231 [3] = assay: In vitro inhibition of MDA-MB-231 (Human breast caner) cell growth.

Row | Structure (SMILES) | EC50 (MDA-MB-231 [3]) [µM] | Ki (MDA-MB-231 [1]) [nM] | Ki (MDA-MB-231 [2]) [nM]
1 | CC(=O)NCCCNCCCNCCCN |  | > 1000 | 
2 | NCCCNCCCCNCCCNC(=O)[C@@H]1CCCN1 | 93 |  | 38
3 | NCCCNCCCCNCCCNC(=O)[C@@H](N)Cc1c[nH]c2ccccc12 | 15 |  | 119
4 | NCCCCN [PUTRESCINE] |  | 1280 | 
5 | NCCCNCCCCNCCCN [SPERMINE] |  | 280 | 
6 | NCCCNCCCCNCCCNC(=O)[C@@H](N)CCCN | 3 |  | 47
7 | CCCCCC(=O)NCCCNCCCCNCCCN |  | 284 | 
8 | NCCCNCCCCNCCCNC(=O)C12CC3CC(CC(C3)C1)C2 |  | 672 | 
9 | NCCCNCCCCNCCCNC(=O)CCN | > 300 |  | 65
10 | NCCCNCCCCNCCCNC(=O)[C@@H](N)Cc1ccc(O)cc1 | 95 |  | 116
11 | CC(C)(C)OC(=O)NCCCNCCCCNCCCN |  | 86 | 
12 | NCCCNCCCCNCCCNC(=O)Cc1cccc2ccccc12 |  | 178 | 
13 | NCCCCNCCCN [SPERMIDINE] |  | 113 | 
14 | NCCCNCCCCNCCCNC(=O)[C@@H](N)Cc1ccccc1 | > 100 |  | 443
15 | NCCCNCCCCNCCCNC(=O)CC12CC3CC(CC(C3)C1)C2 |  | 256 | 
16 | NCCCNCCCCNCCCNC(=O)[C@H](N)Cc1c[nH]c2ccccc12 | 205 |  | 63
17 | N=C(N)NCCCCCCC(=O)NC(O)C(=O)NCCCCNCCCN (stereo not drawn) |  | 81 | 
18 | NCCCNCCCCNCCCNC(=O)[C@@H](N)CC1CCCCC1 | 8 |  | 196
19 | NCCCNCCCCNCCC(=O)NCCCCCNC(=O)[C@H](CC(N)=O)NC(=O)Cc1ccc(O)cc1O [JORO SPIDER TOXIN 3] |  | 190 | 
20 | NCCCNCCCCNCCCNC(=O)[C@@H](N)CCC(N)=O | > 300 |  | 177

Further lines, with some results ahead:

Row | EC50 (MDA-MB-231 [3]) [µM] | Structure (SMILES) | Ki (MDA-MB-231 [1]) [nM] | Ki (MDA-MB-231 [2]) [nM]
21 | > 300 | CC(C)C[C@H](N)C(=O)NCCCNCCCCNCCCN |  | 46
22 | 11 | CC(C)(C)[C@H](N)C(=O)NCCCNCCCCNCCCN |  | 127
23 | 9 | CC(C)[C@@H](N)C(=O)NCCCNCCCCNCCCN |  | 58
24 | 6 | C[C@H](O)[C@H](N)C(=O)NCCCNCCCCNCCCN |  | 213
25 | 9 | CCC(C)[C@H](N)C(=O)NCCCNCCCCNCCCN (stereo partly drawn) |  | 150
26 | 26 | NCCCNCCCCNCCCNC(=O)[C@@H](N)CO |  | 55
27 | 16 | CC(C)[C@H](N)C(=O)NCCCNCCCCNCCCN |  | 84
28 | 98 | NCCCNCCCCNCCCNC(=O)[C@@H](N)CC(N)=O |  | 95
29 | 8 | CC(C)(N)C(=O)NCCCNCCCCNCCCN |  | 191
30 | > 300 | CSCC[C@H](N)C(=O)NCCCNCCCCNCCCN |  | 65
31 | > 100 | NCCCNCCCCNCCCNC(=O)CN |  | 87
32 | > 300 | C[C@H](N)C(=O)NCCCNCCCCNCCCN |  | 144
